Reference: ChEMBL document CHEMBL1128931, “Synthesis and biological evaluation of pyrido[2,3-b]pyrazine and pyrido[2,3-b]pyrazine-n-oxide as selective glycine antagonists” (Bioorg Med Chem Lett, 1996)

Tests used:
[1] = biological target: Glutamate receptor ionotropic, NMDA 1 (Rattus norvegicus, UniProt P35439); assay: In vitro binding affinity for glycine site on the NMDA receptor.
Rattus norvegicus [2] = assay: Compound was evaluated in vivo for antagonistic activity against glycine site in NMDA induced convulsion model in rats after iv administration.; assay type: functional
Rattus norvegicus [3] = assay: Compound was evaluated in vivo for antagonistic activity against glycine site in NMDA induced convulsion model in rats after ip administration.; assay type: functional

| Ki [1] | Structure (SMILES) | ED50 (Rattus norvegicus [2]) | ED50 (Rattus norvegicus [3]) |
| --- | --- | --- | --- |
| 6170 nM | Oc1nc2ccc(Cl)nc2nc1O |  |  |
| 110 nM | Oc1nc2nc(Cl)c(Cl)c(Cl)c2nc1O |  |  |
| 427 nM | Oc1nc2cc(C(F)(F)F)c(Cl)nc2nc1O | 15 mg/kg |  |
| 112 nM | [O-][n+]1c(Cl)c(Cl)cc2nc(O)c(O)nc21 | 14 mg/kg | 24 mg/kg |
| 3020 nM | Cc1c(Br)c(Cl)[n+]([O-])c2nc(O)c(O)nc12 |  |  |
| 3160 nM | Cc1c(Cl)c(Cl)[n+]([O-])c2nc(O)c(O)nc12 |  | 30 mg/kg |
| 112 nM | [O-][n+]1c(Cl)c(Br)cc2nc(O)c(O)nc21 | 18 mg/kg | 45 mg/kg |
| 282 nM | Cc1c(Br)c(Cl)nc2nc(O)c(O)nc12 | 10 mg/kg |  |
| 1580 nM | Cc1c(Br)cnc2nc(O)c(O)nc12 |  |  |
| 372 nM | Cc1c(Cl)c[n+]([O-])c2nc(O)c(O)nc12 | 3 mg/kg | 7 mg/kg |
| 2750 nM | CCCc1nc2nc(O)c(O)nc2c(C)c1Cl |  |  |
| 741 nM | [O-][n+]1cc(I)cc2nc(O)c(O)nc21 |  | 21 mg/kg |
| 204 nM | Oc1nc2cc(I)c(Cl)nc2nc1O |  |  |
| 224 nM | Cc1c(I)cc2nc(O)c(O)nc2[n+]1[O-] |  |  |
| 427 nM | [O-][n+]1cc(C(F)(F)F)cc2nc(O)c(O)nc21 | 15 mg/kg |  |
| 1780 nM | Cc1c(I)cnc2nc(O)c(O)nc12 |  |  |
| 2880 nM | Cc1c(Cl)cnc2nc(O)c(O)nc12 |  | 20 mg/kg |

| Ki [1] | Structure (SMILES) | ED50 (Rattus norvegicus [2]) | ED50 (Rattus norvegicus [3]) |
| --- | --- | --- | --- |
| 912 nM | Cc1c(I)c[n+]([O-])c2nc(O)c(O)nc12 |  | 30 mg/kg |
| 3720 nM | [O-][n+]1cc(C(F)(F)F)c(Cl)c2nc(O)c(O)nc21 |  | 50 mg/kg |
| 537 nM | Cc1c(Br)c[n+]([O-])c2nc(O)c(O)nc12 | 5 mg/kg | 9 mg/kg |
| 513 nM | [O-][n+]1cc(Cl)cc2nc(O)c(O)nc21 |  |  |
| 4680 nM | [O-][n+]1c(Cl)ccc2nc(O)c(O)nc21 |  |  |
| 1580 nM | Oc1nc2ncc(C(F)(F)F)c(Cl)c2nc1O |  |  |
| 468 nM | Cc1nc2nc(O)c(O)nc2cc1I |  |  |
| 813 nM | Cc1nc2nc(O)c(O)nc2c(C)c1Cl |  |  |
| 186 nM | Oc1nc2cc(Cl)c(Cl)nc2nc1O | 0.7 mg/kg | 41 mg/kg |
| 191 nM | Cc1c(Cl)c(Cl)nc2nc(O)c(O)nc12 |  |  |
|  | Oc1nc2cc(Br)c(Cl)nc2nc1O | 20 mg/kg | 100 mg/kg |
| 501 nM | Oc1nc2cc(C(F)(F)F)cnc2nc1O | 13 mg/kg | 27 mg/kg |
| 209 nM | [O-][n+]1c(Cl)c(I)cc2nc(O)c(O)nc21 |  |  |
| 457 nM | CCCc1c(Cl)cc2nc(O)c(O)nc2[n+]1[O-] |  |  |
| 513 nM | [O-][n+]1c(Cl)c(C(F)(F)F)cc2nc(O)c(O)nc21 | 30 mg/kg | 60 mg/kg |
| 1510 nM | CCCc1nc2nc(O)c(O)nc2cc1Cl |  |  |
